“Also recorded” adds a separate entry of the source.
Assays:
Aβ1–42 = target: T1, Aβ1–42 (Homo sapiens, UniProt P05067); experiment: Inhibition of Aβ1–42 aggregation by Thioflavin T (ThT) assay; type: biochemical; conditions: compound at 100 μM, 48 h, 37°C, ThT fluorescence; read-out: Percentage of inhibition of Aβ1–42 fibrillation
T1 construct: Aβ of 42 aa residues (Aβ1–42) represents the most amyloidogenic and toxic form; purchased Calbiochem PP69

AChE = AChE (Electrophorus electricus, UniProt O42275); experiment: biochemical; conditions: for Ki: read-out: AChE inhibition constant (Ki)
[1] = Solubility in solvents noted for the synthesized compounds; type: physicochemical; conditions: qualitative
BACE 1 = BACE 1 (Homo sapiens, UniProt P56817); experiment: Inhibition of BACE 1 activity (FRET kit); conditions: for BACE1 inhibitory activity (in words): FRET
astrocytes = experiment: Cytotoxic effect by MTT assay on astrocytes; conditions: for Cytotoxicity in astrocyte cultures: MTT, 12.5-200 μM; for Astrocytes viability: control for cytotoxicity effect
PC12 = experiment: Cytotoxic effect by MTT assay on PC12 cells; conditions: 12.5-200 μM
NIH3T3 fibroblasts = experiment: Cytotoxic effect by MTT assay on NIH3T3 fibroblasts; conditions: 12.5-200 μM

BACE 1, sequence (P56817 46-501): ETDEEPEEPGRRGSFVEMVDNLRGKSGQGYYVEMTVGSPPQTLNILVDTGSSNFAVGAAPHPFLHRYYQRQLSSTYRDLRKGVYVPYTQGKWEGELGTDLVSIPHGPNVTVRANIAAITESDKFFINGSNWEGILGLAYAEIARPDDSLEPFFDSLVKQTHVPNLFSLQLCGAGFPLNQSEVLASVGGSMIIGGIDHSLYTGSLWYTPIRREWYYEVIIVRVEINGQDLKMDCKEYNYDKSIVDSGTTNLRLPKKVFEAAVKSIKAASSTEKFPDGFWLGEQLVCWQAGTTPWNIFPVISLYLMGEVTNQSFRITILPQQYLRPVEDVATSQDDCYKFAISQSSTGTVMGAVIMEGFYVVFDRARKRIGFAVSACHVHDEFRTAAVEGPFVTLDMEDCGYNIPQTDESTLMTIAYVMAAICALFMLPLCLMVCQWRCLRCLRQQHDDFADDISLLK
T1 sequence (P05067 672-713): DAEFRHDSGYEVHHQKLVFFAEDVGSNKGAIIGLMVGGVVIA
AChE, sequence (O42275 24-633 limits assumed): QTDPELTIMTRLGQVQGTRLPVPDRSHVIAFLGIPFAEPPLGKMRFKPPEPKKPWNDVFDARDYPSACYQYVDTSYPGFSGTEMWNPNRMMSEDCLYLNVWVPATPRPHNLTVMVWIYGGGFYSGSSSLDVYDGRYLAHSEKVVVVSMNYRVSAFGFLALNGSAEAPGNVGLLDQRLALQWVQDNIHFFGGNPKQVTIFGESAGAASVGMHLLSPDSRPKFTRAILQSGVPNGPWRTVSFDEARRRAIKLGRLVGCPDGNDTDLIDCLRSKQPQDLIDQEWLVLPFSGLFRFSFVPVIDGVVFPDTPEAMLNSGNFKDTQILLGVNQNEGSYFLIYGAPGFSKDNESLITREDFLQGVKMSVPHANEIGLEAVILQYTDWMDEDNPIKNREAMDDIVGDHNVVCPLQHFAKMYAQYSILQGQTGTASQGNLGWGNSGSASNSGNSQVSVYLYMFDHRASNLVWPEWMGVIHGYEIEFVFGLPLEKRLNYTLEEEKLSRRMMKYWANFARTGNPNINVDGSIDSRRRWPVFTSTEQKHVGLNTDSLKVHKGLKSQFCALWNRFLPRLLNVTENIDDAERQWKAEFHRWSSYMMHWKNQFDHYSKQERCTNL

SMILES	inhibition at 100 µM (Aβ1–42) [%]	AChE inhibitory activity (in words) (AChE)	Ki (AChE) [µM]	Solubility (solvents) [1]	IC50 (BACE 1) [µM]	BACE1 inhibitory activity (in words) (BACE 1)	Cytotoxicity in astrocyte cultures (astrocytes)	Cytotoxicity in PC12 cell cultures (PC12)	Cytotoxicity in fibroblast cultures (NIH3T3 fibroblasts)	Astrocytes viability (astrocytes; at 100 μM) [%]	Astrocytes viability (astrocytes; at concentrations 1 μM ≤)
COc1ccc(CN)cc1OCCN1CCCC1 [Compound F3S4-m, (4-methoxy-3-(2-(pyrrolidin-1-yl)ethoxy)phenyl) methanamine]	30.5	showed inhibitory activity	0.19	MetOH, EtOH, Acetone	8.38	showed inhibitory activity	not cytotoxic	not cytotoxic	not cytotoxic		
COc1cc(CN)ccc1OCCN1CCCCC1 [Compound F2S4-p, (3-methoxy-4-(2-(piperidin-1-yl)ethoxy)phenyl) methanamine]	42.1	no significant effect; also recorded: did not show inhibitory activity; also recorded: did not show inhibition	> 100	MetOH, EtOH, water		not possible to determine its IC50 value; also recorded: did not show inhibitory activity; also recorded: did not show inhibition			showed cytotoxic		
COc1ccc(CN)cc1OCCN1CCCCC1 [Compound F2S4-m, (4-methoxy-3-(2-(piperidin-1-yl)ethoxy)phenyl) methanamine]	60.9	showed inhibitory activity	0.4	MetOH, EtOH, Acetone, CHCl3, EtOAc, H2O	16	showed inhibitory activity	not cytotoxic	not cytotoxic	not cytotoxic		
[Cl][Cd][Cl] [Cadmium chloride, reference compound]										25	above 80%
